In test [1] the target is T1, human Fpn-GFP fusion construct (Homo sapiens, UniProt Q9NP59).
T1 construct: expressed in transfected cells; host or cells: HEK-293 cell line #354 (derivative of HEK-293 Tet-ON Advanced, Clontech)
T1 sequence (Q9NP59 1-571): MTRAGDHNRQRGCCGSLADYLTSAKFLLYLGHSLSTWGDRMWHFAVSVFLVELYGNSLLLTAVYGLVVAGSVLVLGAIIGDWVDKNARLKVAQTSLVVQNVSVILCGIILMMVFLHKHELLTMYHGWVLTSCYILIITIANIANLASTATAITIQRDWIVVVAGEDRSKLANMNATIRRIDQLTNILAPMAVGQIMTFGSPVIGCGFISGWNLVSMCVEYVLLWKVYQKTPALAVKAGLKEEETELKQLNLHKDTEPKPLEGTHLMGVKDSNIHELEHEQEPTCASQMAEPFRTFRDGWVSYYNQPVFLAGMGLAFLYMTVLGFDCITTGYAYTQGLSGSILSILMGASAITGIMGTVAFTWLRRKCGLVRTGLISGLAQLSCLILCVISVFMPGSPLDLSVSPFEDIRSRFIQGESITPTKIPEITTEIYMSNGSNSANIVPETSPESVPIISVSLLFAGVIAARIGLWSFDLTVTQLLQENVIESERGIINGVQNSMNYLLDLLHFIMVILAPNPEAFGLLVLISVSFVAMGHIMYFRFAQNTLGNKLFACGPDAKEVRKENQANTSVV
Briefly: Inhibition of ferroportin mediated iron export activity in an iron response assay (BLAzer). It is filed as cell-based. The conditions noted are these: average (AVE) of multiple measurements; HEK-293 cell line #354. An excerpt:
Intracellular iron levels are indirectly measured in this assay by monitoring the activity of a beta-lactamase (BLA) reporter gene fused to the human ferritin promoter and the associated iron regulatory element (IRE) contained within the 5′ untranslated region of the ferritin mRNA. Expression of ferroportin (Fpn) in such a cell line leads to iron efflux and lower iron levels as reflected by lower activity of the reporter gene. On the other hand, inhibition of Fpn-mediated iron efflux results in elevated cellular iron levels which is detected as increased reporter gene activity. Small molecular weight Fpn inhibitor compounds were tested for dose-dependent effects in this in vitro iron response assay as described below.
The HEK-293 cell line #354 was generated by stable integration of (i) a human Fpn-GFP fusion construct inserted in a derivative of the doxycycline-inducible pTRE-Tight-BI plasmid (Clontech, Cat. 631068) and (ii) a human ferritin promoter-BLA reporter gene into a derivative of the HEK-293 Tet-ON Advanced cell line (Clontech). […] After overnight incubation, 10 μl/well of dilution series of the test compounds were added in quadruplicates and plates were further incubated overnight at 37° C. with 5% CO2. Cells were washed 3 times with HBSS leaving 25 μl per well. BLA activity was detected by adding 5 μl/well of the GeneBlazer reagent CCF4-AM (Invitrogen, Cat. K1085) to the cells. After incubation of the plates in the dark at 18° C. for 60 min., blue and green fluorescence signals were measured in a Safire2 fluorescence plate reader (Tecan) with excitation at 410 nm and emissions at 458 nm (blue) and 522 nm (green). The ratio of blue/green fluorescence as a measure for BLA activity was calculated and EC50 values were determined with the calculated blue/green fluorescence ratios as described for the hepcidin internalization assay.

The next test has as its target T2, human Fpn (Homo sapiens, UniProt Q9NP59).
T2 construct: FLAG (C); made in house; host or cells: Pichia pastoris
T2 sequence (Q9NP59 1-571): T1 sequence (Q9NP59 1-571)
Briefly: Biophysical Ferroportin-Hepcidin Binding Assay (fluorescence polarization). The note with it: average (AVE) of multiple measurements; TMR-hepcidin binding to purified human Fpn; read-out: FP IC50. As to the method: This biophysical assay was developed to confirm inhibition of hepcidin binding to ferroportin (Fpn) more directly. Incubation of TMR-hepcidin with purified human Fpn isolated from Pichia pastoris yeast cells expressing human Fpn with a C-terminal FLAG affinity tag (Bonaccorsi di Patti, 2014) leads to increased fluorescence polarization (FP) of the TMR-hepcidin ligand. Small molecular weight Fpn inhibitors were tested for inhibition of binding of TMR-hepcidin to Fpn, as detected by dose-dependent decrease of the TMR FP signal, as described in detail below.
A mixture of […] human Fpn and 30 nM TMR-hepcidin in FP assay buffer containing 50 mM Tris-HCl pH 7.3, 200 mM NaCl, 0.02% DDM, 0.1% BSA was plated into a 384 well black low volume round bottom plate (Corning, Cat. 3677) at 16 μl per well. 8 μl of serial dilutions of test compounds were added in duplicates to reach final Fpn and TMR-hepcidin concentrations of […] and 20 nM, respectively. Plates were incubated for 90 minutes at room temperature and parallel (S) and perpendicular (P) fluorescence was measured in a Synergy H1 fluorescence reader (BioTek). FP values were calculated in mP according to the following formula.
(In general: Fluorescence polarisation rises when a labelled molecule tumbles more slowly, as on binding a larger partner.)

The test system of another test is anemic Wistar rats. Briefly: Prevention of iron absorption in anemic rats. Type of test: in vivo, rat. The note with it: 1 h before 0.5 mg/kg ferrous sulfate. On the procedure:
To assess the in vivo efficacy of ferroportin (Fpn) inhibitors to block iron absorption, a series of Fpn inhibitors were tested in an anemic rat model for iron absorption. Wistar rats (3-4 weeks old, n=5, Janvier Labs) were fed a low iron diet (Provimi-Kliba, Cat. 2039) until their hemoglobin (Hb) values reach 7-8 g/dl one day before dosing of the Fpn inhibitor compounds. One hour before oral application of 0.5 mg/kg of ferrous sulfate, test compounds formulated in methyl cellulose or Cremophor were dosed orally. Blood samples were taken by tail vein puncture one hour before administration of iron (−1 h), immediately after dosing of the Fpn inhibitors (0 h) and one hour (1 h), three hours (3 h) and occasionally up to 6 hours (6 h) after dosing of the test compounds. Serum iron levels were measured (Abbott Diagnostics, Cat. 6K95) and inhibition of the rise of serum iron three hours after dosing of the test compound was calculated as a measure for efficacy of the Fpn inhibitors in blocking iron absorption (Table 7).

The structures appear in SMILES notation. Marks after values point to notes of the source that are not given here.

We go through four molecules from US11066399B2, “Ferroportin inhibitors” (Vifor (International) AG, priority 2015, dated 2021).

As usually defined, the EC50 is the concentration that produces a half-maximal response. The low end stands for an effect from little substance, the high end for a need for much substance. For orientation: IC50 means the concentration that inhibits the measured activity by half.

Turning to `O=C(NCc1ncccc1F)c1csc(CCNCc2nc3ccccc3[nH]2)n1` [Example 40], the EC50 in test [1] amounted to 1450 nM. Further, the IC50 at human Fpn was 68 nM.
For `O=C(NCc1ncccc1F)c1cnc(C2CN(CCc3nc4ccccc4[nH]3)C2)o1` [Example 2], in that order: 1030 nM and 17 nM.
For the molecule `O=C(NCc1ncccc1F)c1cnn(CCNCCc2cc3ccccc3[nH]2)c1` [Example 277], a half-maximal response in test [1] (EC50) required 170 nM.
In test [1], `O=C(NCc1ncccc1F)c1cnc(CCNCCc2nc3ccccc3[nH]2)o1` [Example 1] had a 50% effective concentration (EC50) of 930 nM. Also, the “Serum Iron Inhibition (%) at 3 h” value in the test with anemic Wistar rats (Dose 10 mg/kg oral) was 42.6** %; with anemic Wistar rats (Dose 30 mg/kg oral) it was 64.9*** %. Besides, at human Fpn, the IC50 was 16 nM.
